Measurements from paper PMC7942396, “Drug Repurposing Screen for Compounds Inhibiting the Cytopathic Effect of SARS-CoV-2” (Frontiers in Pharmacology, 2021).
Structures can show the parent of a compound that is named as a salt. Where two headings read alike, the source gives them in different places.

Assays:
[1] = tested on: SARS-CoV-2 (USA_WA1/2020); assay: microbe, parasite or virus in culture; type: cell-based; conditions: for EC50: read-out: CPE EC50
Vero E6 cells = Vero E6 cells without virus; for CC50: read-out: Cytotox CC50
[2] = SARS-CoV-2 CPE assay, Vero E6 cells, confirmed anti-SARS-CoV-2 compounds
[3] = SARS-CoV-2 CPE assay, Vero E6 cells, efficacy
[4] = […], DMSO 0%, no-virus control 100%, hit confirmation
[5] = SARS-CoV-2 CPE assay, Vero E6 cells

SMILES	EC50 [1, 2] [µM]	CPE % Efficacy [1, 3] [%]	% Cytotox (Vero E6 cells; cytotoxicity counter-assay) [%]	CPE % Efficacy [1, 4] [%]	EC50 [1] [µM]	% Cytotox (Vero E6 cells; 72 h) [%]	CC50 (Vero E6 cells; cytotoxicity counter-assay) [µM]	CPE % Efficacy [1, 5] [%]	EC50 [1, 5] [µM]
CCCOC(C(=O)OC1CCN(C)CC1)(c1ccccc1)c1ccccc1.Cl [Propiverine hydrochloride]	11.2	44.6	0.0						
CCN(CC)CCCS(=O)(=O)N[C@H](CCc1ccccc1)c1nc(Cc2ccc(Br)cc2)no1 [CpdD hydrochloride, reference compound]				96.9	10	<30			
c1ccc(-c2ccc(CNc3nc(-c4ccccn4)nnc3-c3ccccc3)cc2)cc1 [ML-228]	0.63	69.4	74.8				0.56		
Cc1ccc(-c2c(C(=O)CCl)n(CCCO)c3ncnc(N)c23)cc1 [CMK]			15.2					38.9	12.6
CC(C)(O)CNc1ncc(-c2ccnc(Nc3ccncc3)n2)c(CC2CC2)n1 [VPS34 Inhibitor 1, reference compound]				98.3	1.4	<30			
COc1cccc(CCc2ccccc2OCC(CN(C)C)OC(=O)CCC(=O)O)c1.Cl (stereo not drawn) [Sarpogrelate hydrochloride]	11.2	30.1	21.2				15.8		
COc1cc(N2CCN(C)CC2)ccc1Nc1ncc2c(n1)N(C)c1ccccc1C(=O)N2 [XMD8-87]			32.0					88.0	11.2
Cc1cc(CC(C)CC(C)(C)C)n(O)c(=O)c1.NCCO (stereo not drawn) [Piroctone Olamine]	4.47	61.2	46.6				1.78		
COc1ccc(NC(=O)c2ccc(-c3ccc(-c4nnc(C)o4)cc3C)cc2)cc1N1CCN(C)CC1 [GMC 2-29, reference compound]				117.2	7.9	<30			
CCCCOC(=O)c1ccnc2cc(C(OCCN3CCCCC3)c3ccccc3C)sc12 (stereo not drawn) [NCGC00481621]	10	88.9	35.5				12.6		
CC1(CN2CCC(n3c(=O)[nH]c4ccccc43)CC2)OCc2ccccc2-n2cccc21.O=C(O)/C=C\C(=O)O (stereo not drawn) [Zaldaride maleate]	11.2	81.7	0.0						
C[C@H](CCC(=O)O)C[C@H](C)C[C@H](C)C(=O)/C=C(\O)[C@H](C)C[C@H](C)C/C=C/[C@@H](C)[C@@H](O)[C@@H](C)[C@@H](O)C[C@@H]1CC[C@@](C)([C@H]2CC[C@@](C)([C@@H](C)O)O2)O1 [Ionomycin(Calciumsalt)]	7.8	90.4	69.7				6.95		
CN(C)CC(=O)N1CCC(c2ccc(NC(=O)c3nc(C#N)c[nH]3)c(C3=CCCCC3)c2)CC1 [JNJ-28312141]			60.9				12.6	37.8	14.1
COc1ccc(NS(=O)(=O)c2sc3ccc(Cl)cc3c2C)cc1N1CCNCC1 [SB 271046 hydrochloride, reference compound]				107.5	10	<30			
OC(CNc1ccccc1)Cn1c2ccc(Br)cc2c2cc(Br)ccc21 (stereo not drawn) [P7C3]	3.98	65.2	54.5				11.2		
CC(C)c1onc(-c2c(Cl)cccc2Cl)c1COc1ccc(/C=C/c2cccc(C(=O)O)c2)c(Cl)c1 [GW-4064X]			60.4					73.5	12.6
COc1ccc2sc(NC(c3ccc(OC(F)F)cc3)c3ccc4cccnc4c3O)nc2c1 (stereo not drawn) [KIN1408]	0.89	69.8	77.9				0.71		
CS(=O)(=O)NCC1CCC(Nc2nc3c(s2)CCSc2ccccc2-3)CC1 (stereo not drawn) [LU AA33810]			0.0					48.3	12.6
O=C(O)c1ccc(CCCc2ccc(OCCc3ccc(F)cc3)cc2)o1 [D-942]	0.14	120.3	53.7				11.2		

SMILES	EC50 [1, 2] [µM]	CPE % Efficacy [1, 3] [%]	% Cytotox (Vero E6 cells; cytotoxicity counter-assay) [%]	CPE % Efficacy [1, 4] [%]	EC50 [1] [µM]	% Cytotox (Vero E6 cells; 72 h) [%]	CC50 (Vero E6 cells; cytotoxicity counter-assay) [µM]	CPE % Efficacy [1, 5] [%]	EC50 [1, 5] [µM]
Cc1nc2ccc(Oc3ccc(F)cc3)cc2c(=O)n1C[C@H]1CCCN(C(C)C)C1 [YIL 781]			0.0					53.5	11.2
COc1ccccc1Nc1nc(-c2sc(NC(C)=O)nc2C)cs1 [JNJ0966]	11.2	38.6	61.5				11.2		
CC[C@H](NC(=O)[C@H](CS(=O)(=O)CC1CC1)N[C@@H](c1ccc(F)cc1)C(F)(F)F)C(=O)C(=O)NC1CC1 [VBY-825, reference compound]				97.8	0.14	<30			
COc1cc(C(=O)NC(=N)Nc2ccc(C)c(NC(=O)c3ccc(-c4ccccc4)cc3)c2)cc(OC)c1OC [MRT-83]			37.9				10	56.4	11.2
C[C@@H]1CN(CC(=O)N2CC(C)(C)c3ncc(Cc4ccc(F)cc4)cc32)[C@@H](CN2CCOC[C@H]2C)CN1 [AT-IAP]			0.0					56.2	
C/C(=N\NC(=O)c1cccc(S(=O)(=O)N2CCOCC2)c1)c1cc(Cl)ccc1O [SP2509]	1.26	42.0	67.4				1		
Cc1c(CCOc2ccc(C(=O)O)cc2)c2cc(Cl)ccc2n1C(c1ccccc1)c1ccccc1 [CDIBA]			77.1				12.6	52.2	14.1
Cc1cc(N2CCN(C(=O)Oc3ccc(-c4ccccc4)cn3)CC2)c2ccccc2n1 [NCGC00386928]			68.1				12.6	63.4	12.6
COc1cccc(NC[C@@H](O)Cn2c3ccc(Br)cc3c3cc(Br)ccc32)c1 [(R)-P7C3-Ome]			32.2				11.2	63.4	12.6
CC(NC(=O)[C@H](Cc1ccccc1)NC(=O)OCc1ccccc1)C(=O)CF (stereo partly drawn) [Z-FA-FMK, reference compound]				104.8	0.13	<30			
CN(C)S(=O)(=O)c1ccc(NC(=S)N2CCC(C(O)(c3ccccc3)c3ccccc3)CC2)cc1 [CYM 9484]	11.2	30.8	13.8				19.9		
Cn1cc(-c2ccc(-c3cncc(Cl)c3N3CCC4(CCNC4=O)CC3)cc2)cn1 [CCT-251545]			0.0					65.2	14.1
CCC(C)C(=O)OC1CC(O)C23C4OCC5(C(O)CC2C1(C)C(O)O4)C3C(=O)CC1(C)C(c2ccoc2)CC2OC215 (stereo not drawn) [NCGC00381227]	3.91	82.9	53.1				7.8		
CCc1cc(-c2n[nH]c(C)c2-c2ccc3c(c2)OCCO3)c(O)cc1O [CCT-018159]			34.2					74.6	14.1
CCCCN1[C@@H]2CC[C@H]1CC(OC(c1ccc(F)cc1)c1ccc(F)cc1)C2.Cl (stereo partly drawn) [JHW 007 hydrochloride]	7.08	87.4	38.8				12.6		
CN1CN(c2ccccc2)C2(CCN(CCCC(=O)c3ccc(F)cc3)CC2)C1=O.Cl [N-Methylspiperone hydrochloride, reference compound]				80.0	4.5	<30			
CN1CCCCC1Cn1cc(C(=O)c2cc([N+](=O)[O-])ccc2I)c2ccccc21 (stereo not drawn) [AM1241, reference compound]				97.6	10	<30			
Cc1cccc2c1CC[C@H](CN1CCC(c3c(Cl)cccc3Cl)CC1)C[C@@H]2O.Cl [SB 612111 hydrochloride]	8.91	53.8	59.7				12.6		
